Measurements: patent publication US7763604B2, “Methods for administration of a farnesyl dibenzodiazepinone” (Thallion Pharma Ceuticals, Inc., priority 2005, dated 2010)

How the values were obtained:
[1] = population pharmacokinetic analysis, monkey (CIV); format: in vivo; set-up: mean clearance: unit not given here; conditions: for mean clearance: monkeys, 14-day continuous infusion
Protocol: An analysis was performed to derive allometric equations for Formula I pharmacokinetic parameters using Formula I plasma concentration-time data from three species, including mouse, rat, and monkey, and to estimate human pharmacokinetic parameters from those allometric equations.
Plasma concentrations of Formula I were obtained from mice, rats, and monkeys following intravenous injection or continuous infusion. Formula I pharmacokinetic parameters in mice, rats, and monkeys were estimated using population pharmacokinetic analysis, a function of the software program NONMEM™ (version 5). Typical population pharmacokinetic parameters for Formula I in humans were extrapolated from allometric equations that were derived from pharmacokinetic parameters estimated in the three animal species.
A two-compartment model with a first-order elimination from the central compartment adequately described Formula I plasma concentration-time profiles following intravenous bolus injection (30 mg/kg) in mice and rats, 7-day continuous infusion in rats (50 to 170 mg/kg/day), and 14-day continuous infusion in monkeys (5 to 30 mg/kg/day).
Application of a two-compartment model with Michaelis-Menten elimination better described the concentration data in monkeys than the linear model. Because the target concentration in humans is 2 μM, at which linear pharmacokinetics is assumed, all simulations for human plasma concentrations were performed based on a two-compartment model with linear first-order elimination.

[2] = pharmacokinetics of 14-day CIV infusion in monkeys; format: in vivo, Cynomolgus monkeys; conditions: for T1/2z: calculated at the end of treatment, mean
Protocol: (§1) Cynomolgus monkeys received continuous IV infusion over 14 days of Formula I at 5 mg/kg/day, 15 mg/kg/day, or 30 mg/kg/day. The drug was infused intravenously (24 hours/day) into the femoral vein at a dose rate of 2 ml/kg/hour for 14 consecutive days. Blood samples were removed from each monkey on Days 1, 2, 6, 10, and 15 of the treatment period. Monkeys were bled by venipuncture and samples were collected into tubes containing K2EDTA. On Day 1, samples were collected at 2, 6, and 12 hours after initiation of treatment. Additional samples were collected at 30 hours after the start of infusion (Day 2). On Days 6 and 10, samples were collected at approximately 6 hours after the bag changes. At the end of the 14 days of infusion, on Day 15, samples were collected at 1 hour prior to cessation of dose administration, and at 5 min, 30 min, 1 h, 2 h, 4 h, 8 h, and 24 h following cessation of dose administration.

[3] = pharmacokinetics of 14-day CIV infusion in rats; format: in vivo, Sprague-Dawley rats; conditions: calculated at the end of treatment
Protocol: Sprague-Dawley rats received an intravenous continuous infusion over 14 days of Formula I at 25 mg/kg/day, 50 mg/kg/day, or 75 mg/kg/day at a rate of 2 mL/kg/h for 14 consecutive days (same formulation as in Example 7). Blood was collected from the jugular vein in tubes containing K2 EDTA from 3 rats/sex/group at the following time points: 2, 6, and 12 hours after the start of dosing on Day 1, on Day 2 at 6 hours (approximately 30 hours after the start of dosing), on Days 6 and 10 at 6 hours, and on Day 15, 1 hour prior the end of dosing, and then at 5 min, 15 min, 30 min, 1 h, and 2 h after the end of dosing.

[4] = test system: P388 murine leukemia cells; assay: murine P388 leukemia model, survival; format: in vivo; conditions: group 2, IV 50 mg/kg in PEG-PG formulation, 10 mice per group
Protocol: Formulation: The compound of Formula I is first dissolved in 1 volume of 90% propylene glycol (PG). This is followed by the addition of 2 volumes of 45% polyethylene glycol 400 (PEG 400). The volume ratio of PEG 400/PG/water is respectively 30:30:40. Compound is injected in a volume of 10 mL/kg.
DBA/2 female mice (6 weeks of age) were injected intraperitoneally (IP) with 1×10^6 P388 murine leukemia cells (day 0). […]
Mice body weights were recorded twice a week. Lethality and behaviour of animals were recorded every day. […] The results are expressed as percent of mean survival time of treated animals over the mean survival time of the control group (treated vs control, T/C %) and as increase life span (mean survival time of treated animals minus that of control animals over the mean survival time of the control group; ILS %).

[5] = toxicity of 14-day continuous intravenous infusion in monkeys; format: in vivo; conditions: 14-day CIV
Protocol: as §1

CC(C)=CCC/C(C)=C/CC/C(C)=C/CN1C(=O)c2cccc(O)c2Nc2c(O)cc(O)cc21 [Formula I, 10-farnesyl-4,6,8-trihydroxy-dibenzodiazepin-11-one]
Ke ([1]; Monkey (CIV), population PK): 2.172 h⁻¹ | mean clearance ([1]; 5 mg/kg/day): 0.63 | mean clearance ([1]; 15 mg/kg/day): 0.57 | mean clearance ([1]; 30 mg/kg/day): 0.23 | fold increase in AUC between groups ([2]; 15 mg/kg/day versus 5 mg/kg/day): 3.4 fold | fold increase in AUC between groups ([2]; 30 mg/kg/day versus 15 mg/kg/day): 4.7 fold | T1/2z ([2]; CIV 5 mg/kg/day): 12 h | T1/2z ([2]; CIV 15 mg/kg/day): 8.3 h | T1/2z ([2]; CIV 30 mg/kg/day): 8.1 h | concentration at 14 days ([2]; cynomolgus monkey, plasma, 14-day IV continuous infusion, read-out: stable plasma concentrations above the therapeutic threshold): > 2000 nM | T1/2z ([3]; CIV 25 mg/kg/day): 1.6 h | T1/2z ([3]; CIV 50 mg/kg/day): 1.2 h | T1/2z ([3]; CIV 75 mg/kg/day): 1.2 h | mice died one day after treatment due to formulation toxicity [4]: 3 mice | degenerative changes in organs, including the infusion site [5]: No degenerative changes | effect on body weight, ocular condition, electrocardiographic activity and other parameters [5]: no effect | side effects [5]: inappetance and a moderate degree of regenerative anemia, were reversible | compound associated toxicity ([5]; 5 to 30 mg/kg/day): no severe compound associated toxicity
